# Entries after “also recorded” stand apart in the source; their conditions may differ. Residues, ends and D or L forms follow the SMILES beside them.
# Tests used:
# HSC-4 cells [1] = system: HSC-4 cells
# Protocol: Evaluation of the cytotoxicity of SSTP1 and SSTP2 was performed using MTT assay in an oral cancer cell line, HSC-4 at various concentrations of the respective peptides.
# HSC-4 cells [2] = assay: Annexin/PI staining with FACS analysis; format: cell-based; conditions: HSC-4, 10 μM, 22 h
# Protocol: To check whether the cytotoxic effect is due to apoptosis, Annexin/PI staining was performed, with the population with Annexin alone (early apoptotic), Annexin/PI dual stained (late apoptotic) and PI alone (dead cells) were quantified by FACS.
# [3] = system: Caspase 3, 7, 8, 9 and PARP in HSC-4 cells; assay: Western blot for caspase and PARP cleavage; format: cell-based; conditions: HSC-4, 10 μM
# [4] = system: six cancer cell lines of different origin; assay: MTT assay in six cancer cell lines with up-regulated IL6Rα; format: cell-based; conditions: 10 μM SSTP1, all six cell lines
# Protocol: (§1) Further, the growth inhibitory property of SSTP1 on different cell lines with different levels of IL6Rα was investigated. Six cancer cell lines of different origin were evaluated for their IL6Rα expression in comparison to HSC-4 by western blot (FIGS. 8a and b). […] Since many of the bioactive peptides induce hemolysis, we evaluated the hemolysis induced by SSTP1 (FIG. 8d).
# human leukocytes = assay: Trypan blue exclusion of leukocytes; conditions: 4.5 μM, 48 h
# AP1 = assay: Luciferase AP1 reporter assay; format: cell-based; conditions: in comparison to SSTP2
# IL6Rα [5] = target: T1, IL6Rα (Homo sapiens, UniProt P08887); assay: Pull-down assay using biotin-labelled peptides; format: binding
# T1 sequence (P08887 20-468): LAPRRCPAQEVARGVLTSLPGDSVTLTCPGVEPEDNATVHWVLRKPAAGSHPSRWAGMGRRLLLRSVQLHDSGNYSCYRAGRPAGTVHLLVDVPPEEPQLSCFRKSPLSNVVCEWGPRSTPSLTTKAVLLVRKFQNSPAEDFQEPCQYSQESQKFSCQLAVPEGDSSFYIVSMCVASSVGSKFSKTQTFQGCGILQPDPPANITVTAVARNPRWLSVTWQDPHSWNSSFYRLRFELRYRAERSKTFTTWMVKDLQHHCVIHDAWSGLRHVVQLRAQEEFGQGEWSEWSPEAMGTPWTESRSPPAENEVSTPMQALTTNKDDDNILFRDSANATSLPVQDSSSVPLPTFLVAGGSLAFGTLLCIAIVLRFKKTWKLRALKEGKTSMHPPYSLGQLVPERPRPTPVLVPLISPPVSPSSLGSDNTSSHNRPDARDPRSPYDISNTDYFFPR
# Excerpt: To check whether SSTP1 activates the IL6/IL6R pathway by binding to IL6Rα, we checked the co-localization of SSTP1 and IL6Rα on cell membrane. […] To visualize the IL6R-dependent SSTP1 endosomal up-take, we used an early endosome marker, Rab5C. We observed the co-existence of SSTP1 and IL6Rα within early endosomes, marked by Rab5C (FIGS. 4c and d). […] The physical interaction of SSTP1 and IL6Rα was also ascertained using FRET analysis (FIG. 4f).
# FIG. 4 illustrates SSTP1 interacts with IL6Rα and mediates the uptake of SSTP1 specifically FIG. 4(a) discusses HSC-4 cells were treated with Biotin labelled SSTP1 or SSTP2 (10 μM) for 30 minutes and then fixed and probed without permeabilization using mouse IL6Rα. 4(b) illustrates the co-localization of SSTP1 or SSTP2 to IL6Rα was analyzed for 11 cells and the Pearson's correlation was plotted. 4(c) illustrates cells were treated as in panel (a) and fixed and permeabilized to probe for IL6Rα, SSTP1 and Rab5c. The arrow mark indicates the co-localization. The scales bars represent 4 μm. 4(d) illustrates the Mander's overlap in SSTP1 foci were quantified for 10 cells. The average values for each cell is plotted. 4(e) illustrates the pull down assay using SSTP1-biotin and probed for IL6Rα. 4(f) illustrates the FRET analysis to show the SSTP1 binding to IL6Rα.
# MDA-MB-231 cells = conditions: read-out: IC50 growth inhibition (MTT)
# IL6Rα [6] = target: T1, IL6Rα; assay: Co-localization of peptide and IL6Rα on cell membrane (Pearson's coefficient); format: cell-based; set-up: fixed and probed without permeabilization using mouse IL6Rα; endogenous in cells; host or cells: HSC-4; conditions: HSC-4, 10 μM, 30 minutes
# Excerpt: To check whether SSTP1 activates the IL6/IL6R pathway by binding to IL6Rα, we checked the co-localization of SSTP1 and IL6Rα on cell membrane. […] To visualize the IL6R-dependent SSTP1 endosomal up-take, we used an early endosome marker, Rab5C. We observed the co-existence of SSTP1 and IL6Rα within early endosomes, marked by Rab5C (FIGS. 4c and d). […] The physical interaction of SSTP1 and IL6Rα was also ascertained using FRET analysis (FIG. 4f). FIG. 4 illustrates SSTP1 interacts with IL6Rα and mediates the uptake of SSTP1 specifically FIG. 4(a) discusses HSC-4 cells were treated with Biotin labelled SSTP1 or SSTP2 (10 μM) for 30 minutes and then fixed and probed without permeabilization using mouse IL6Rα. 4(b) illustrates the co-localization of SSTP1 or SSTP2 to IL6Rα was analyzed for 11 cells and the Pearson's correlation was plotted. 4(c) illustrates cells were treated as in panel (a) and fixed and permeabilized to probe for IL6Rα, SSTP1 and Rab5c. The arrow mark indicates the co-localization. The scales bars represent 4 μm. 4(d) illustrates the Mander's overlap in SSTP1 foci were quantified for 10 cells. The average values for each cell is plotted. 4(e) illustrates the pull down assay using SSTP1-biotin and probed for IL6Rα. 4(f) illustrates the FRET analysis to show the SSTP1 binding to IL6Rα.
# [7] = system: JAK/STAT, JNK/AP1, MAPK and AKT phosphorylation in HSC-4 cells; assay: Western blot of JAK/STAT, JNK/AP1, MAPK and PI3K pathway phosphorylation; format: cell-based; conditions: HSC-4, 10 μM
# Excerpt: a. […] The phosphorylated forms of STAT1 (Y701) and STAT3 (Y705) were probed for western blot to see the JAK/STAT pathway activation. Another phosphorylation of STAT3 at S727, which is reported to be independent of JAK activation, was also probed. […] All these biochemical analyses point out that SSTP1 preferentially down-regulates JAK-mediated-phosphorylation of STATs and MAPK, simultaneously up-regulating phosphorylation of JNK1 and cJUN. b.
# human RBCs = assay: Hemolysis of human RBCs; conditions: 5 μM
# Protocol: as §1
# HSC-4 cells [8] = assay: MTT assay of SSTP1-induced growth inhibition with or without inhibitors; format: cell-based; conditions: 4 h, SSTP1 10 μM; LMT-28 60 μM, Anti-IL6Rα 10 μg/ml, SC144 40 μM
# Excerpt: (§2) a. Inhibitors for IL6 (LMT-28), JAK (Ruxolitinib), gp130 (SC-144) and JNK (SP600125) as well as Anti-IL6Rα were used to check the dispensability of each of these molecules in inducing apoptosis by SSTP1. […] The SSTP1-mediated up-regulation of pJNK was not appreciably affected by either of these inhibitors, while pcJUN up-regulation was inhibited by only SP600125 (FIGS. 7a and b). […] LMT28 binds to the interface between IL6 and gp130 to block the activity of IL6. Since SSTP1 binds to a different site on the IL6/IL6Rα/gp130 complex, i.e., the interface of IL6 and IL6Rα, there is no competitive inhibition when we add LMT28. b.
# [9] = system: STAT, JNK and cJUN phosphorylation in HSC-4 cells; assay: Western blot of HSC-4 cells treated with SSTP1 and inhibitors; format: cell-based; conditions: HSC-4, SSTP1 10 μM, SC144 40 μM, Anti-IL6Rα 10 μg/ml, 30 minutes
# Excerpt: as §2
smiles,measurement,setting,value
"CC[C@H](C)[C@H](NC(=O)[C@H](CCCNC(=N)N)NC(=O)[C@H](CCCNC(=N)N)NC(=O)[C@@H]1CCCN1C(=O)[C@H](CC(C)C)NC(=O)[C@@H](N)Cc1ccccc1)C(=O)N[C@@H](CO)C(=O)N[C@@H](C)C(=O)N[C@@H](CCCNC(=N)N)C(=O)N[C@H](C(=O)N[C@@H](CO)C(=O)N[C@@H](CC(C)C)C(=O)N[C@@H](Cc1ccccc1)C(=O)N1CCC[C@H]1C(=O)N[C@@H](CCCCN)C(=O)N[C@@H](CCCNC(=N)N)C(=O)NCC(=O)N[C@@H](CCCCN)C(N)=O)[C@@H](C)O [SSTP2, FLPRRISARTSLFPKRGK-NH2, reference compound] (H-FLPRRISARTSLFPKRGK-NH2)","cytotoxicity (MTT), result in words",HSC-4 cells [1],ineffective in inducing cytotoxicity
"CC[C@H](C)[C@H](NC(=O)[C@H](CC(C)C)NC(=O)[C@H](CC(C)C)NC(=O)[C@@H]1CCCN1C(=O)[C@H](CC(C)C)NC(=O)[C@@H](N)Cc1ccccc1)C(=O)N[C@@H](CO)C(=O)N[C@@H](C)C(=O)N[C@@H](CC(C)C)C(=O)N[C@H](C(=O)N[C@@H](CO)C(=O)N[C@@H](CC(C)C)C(=O)N[C@@H](Cc1ccccc1)C(=O)N1CCC[C@H]1C(=O)N[C@@H](CCCCN)C(=O)N[C@@H](CC(C)C)C(=O)NCC(=O)N[C@@H](CCCCN)C(N)=O)[C@@H](C)O [SSTP1, FLPLLISALTSLFPKLGK] (H-FLPLLISALTSLFPKLGK-NH2)",increase in early apoptotic population,HSC-4 cells [2],3 fold
same,Caspase 8 cleavage,[3],unaffected
same,"cleavage of Caspase 3, 7 and 9",[3],active cleavage
same,time to PARP cleavage,[3],≤ 16 h
same,growth inhibitory potential compared to HSC-4,[4],drastic increase in the growth inhibitory potential
same,viability of leukocytes,human leukocytes,did not affect the viability; also recorded: no adverse effect; also recorded: Illustrates SSTP1 do not induce cell death in human leukocytes
same,IC50,"HSC-4 cells [1]; read-out: IC50 growth inhibition (MTT), HSC-4 cells",10.2 µM
same,AP1 activity (luciferase reporter),AP1,activated
same,physical interaction with IL6Rα (pull-down),IL6Rα [5],stronger than that of SSTP2
same,IC50,MDA-MB-231 cells,4.5 µM
same,co-localization to IL6Rα on cell surface,IL6Rα [6],several foci on the cell surface with co-localization
same,STAT1 (Y701) phosphorylation,[7],did not affect STAT1 (Y701) phosphorylation significantly
same,STAT3 (Y705) phosphorylation,[7],drastically reduced
same,pJNK2 levels,[7],up-regulated
same,pSTAT3(S727),[7],slight up-regulation
same,pc-JUN level,[7],increased level
same,phosphorylation of JNK1,[7],markedly up-regulated
same,hemolysis,human RBCs,0.25%
O=C(NNc1nc2cc(F)ccc2n2cccc12)c1cnccn1 [SC144],effect on SSTP1-induced growth inhibition,HSC-4 cells [8],significantly inhibited
same,"phosphorylation of STATs, JNK and cJUN",[9],significantly reduced

# From US20230270815A1, “Apoptosis inducing peptide (SSTP1)” (Rajiv Gandhi Centre For Biotechnology, priority 2020, published 2023)
